Experimental data: patent US6537803B1, “Amino acid transporters and uses” (Oregon Health Sciences University, priority 1993, dated 2003)
Like-named read-outs stand apart in the source and are kept apart here.

Tests used:
Water-injected Oocytes = assay: radiolabeled amino acid uptake in water-injected Xenopus oocytes; format: cell-based, Xenopus laevis; settings: Amino Acid (1 mM); n = 5
From the text: (§1) Following the PCR, the product of the amplification reaction was purified using standard techniques (Saiki et al., 1988, Science 239: 487-491). The DNA then digested with the restriction enzymes KpnI and XbaI and then cloned into the polylinker of an oocyte transcription vector (POTV; see Wang el al., 1991, Nature 352: 729-731) that had been digested with KpnI and XbaI. Synthetic RNA was then transcribed in vitro from this clone using the method of Kavanaugh et al. (1992, J. Biol. Chem. 267: 22007-22009) employing bacteriophage T7 RNA polymerase (New England Biolabs, Beverly, Mass.). 20-50 nL of ASCT1 RNA (at a concentration of about 400 μg/mL) was injected into defolliculated stage V-VI Xenopus oocytes excised from female Xenopus laevis anesthetized by immersion in 3-aminobenzoic acid for 60 min. Excised oocytes were treated with collagenase II (Sigma Chemical Co., St. Louis, Mo.) in calcium-free Barth's saline solution [comprising 88 mM NaCl, 1 mM KCl, 2.4 mM NaHCO3, 0.82 mM MgSO4, 7.5 mM Tris-HCl (pH 7.6), 50 U/mL Nystatin (Sigma) and 0.1 mg/mL gentamycin (Sigma)] for 60 min., and then incubated overnight at 15° C. in 50% Leibowitz's L-15 media (Grand Island Biological Co. (GIBCO), Long Island, N.Y.). After overnight incubation the oocytes were mechanically defolliculated and then were injected with ASCT-1 RNA and incubated at 19° C. for 48 h (see Kim el al., 1991, Nature 352: 725-728 for further details of Xenopus oocyte preparation and microinjection).
Amino acid transport in such oocytes was assayed using [^3H] alanine, [^3H] serine or [^35S] cysteine (obtained from New England Nuclear, Boston, Mass.). Briefly, microinjected oocytes were […] at −60 mV using a Dagan TEV-200 clamp amplifier with an Axon Instruments (Foster City, Calif.) TL-1 A/D interface controlled by pCLAMP software (Axon Instruments) (see Kavanaugh et al., 1992, J. Biol. Chem. 267: 22007-22009 for a detailed review of this methodology) and continuously superfused with ND-96 buffer (consisting of 96 mM NaCl/2 mM KCl/1.8 mM CaCl2/1 mM MgCl2/5 mM HEPES, pH 7.5). […]

[1] = biological target: T1, human ASCT1 neutral amino acid transporter (Homo sapiens, UniProt P43007); assay: amino acid-induced inward current in voltage-clamped ASCT1-injected Xenopus oocytes; format: cell-based; settings: for Imax (maximal current): L-stereoisomer, current normalized to the maximum response obtained with L-alanine, mean ± standard error; for membrane response (inward Na+ currents) of ASCT1-injected oocytes: ND-96 buffer, clamped at −60 mV
T1 construct: expressed in transfected cells; host or cells: Xenopus laevis oocytes injected with in vitro transcribed RNA (pOTV vector)
T1 sequence (P43007 1-532): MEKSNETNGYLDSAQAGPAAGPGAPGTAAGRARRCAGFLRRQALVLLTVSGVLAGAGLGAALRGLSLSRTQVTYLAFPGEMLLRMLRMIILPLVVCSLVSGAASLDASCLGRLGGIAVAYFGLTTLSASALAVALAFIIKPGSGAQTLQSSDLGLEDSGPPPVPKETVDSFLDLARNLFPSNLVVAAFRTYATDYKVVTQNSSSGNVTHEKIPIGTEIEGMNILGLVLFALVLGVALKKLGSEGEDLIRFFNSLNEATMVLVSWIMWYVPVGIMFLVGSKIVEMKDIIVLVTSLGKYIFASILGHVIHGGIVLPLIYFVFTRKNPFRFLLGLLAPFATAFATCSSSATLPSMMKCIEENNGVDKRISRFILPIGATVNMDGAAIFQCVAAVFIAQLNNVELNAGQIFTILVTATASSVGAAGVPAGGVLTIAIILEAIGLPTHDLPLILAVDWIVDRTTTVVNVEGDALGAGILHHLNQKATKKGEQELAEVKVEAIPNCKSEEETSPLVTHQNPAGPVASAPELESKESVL
From the text: as §1
(§2) Amino acid transport in such oocytes was assayed using [^3H] alanine, [^3H] serine or [^35S] cysteine (obtained from New England Nuclear, Boston, Mass.). Briefly, microinjected oocytes were […] at −60 mV using a Dagan TEV-200 clamp amplifier with an Axon Instruments (Foster City, Calif.) TL-1 A/D interface controlled by pCLAMP software (Axon Instruments) (see Kavanaugh et al., 1992, J. Biol. Chem. 267: 22007-22009 for a detailed review of this methodology) and continuously superfused with ND-96 buffer (consisting of 96 mM NaCl/2 mM KCl/1.8 mM CaCl2/1 mM MgCl2/5 mM HEPES, pH 7.5). For transport measurements, this solution was changed to a solution containing varying concentrations of the radiolabeled amino acids in ND-96 buffer.
More detailed analyses of ithe kinetics of amino acid influx were performed by least squares linear regression analysis of induced inward current ([I]) plotted as a function of substrate amino acid concentration ([S]), using the equation shown in the legend of Table II.

[2] = biological target: T1, human ASCT1 neutral amino acid transporter; assay: radiolabeled amino acid uptake in ASCT1 RNA-injected Xenopus oocytes; format: cell-based; settings: Amino Acid (1 mM); n = 5
From the text: as §1, §2

[3] = biological target: human EAAT1 excitatory amino acid transporter (Homo sapiens, UniProt P43003); assay: electrogenic amino acid uptake in EAAT1-expressing Xenopus oocytes; settings: for electrogenic uptake in EAAT1-expressing oocytes: 1000 μM
Method: (§3) Such RNA preparations were each introduced into Xenopus oocytes as descnbed in Example 3 to enable expression therein. Amino acid uptake experiments were performed on such oocytes expressing each of the glutamate transporters, also as described in Example 3.
(§4) These experiments were performed essentially as described for the ASCT1 transporter in Example 3.

neuronal cell = settings: cited from earlier work
[4] = substrate: N[C@@H](CS)C(=O)O; assay: cells, lysate or membranes; settings: other: inward current vs extracellular substrate concentration
Method: as §3, §4

In the case of `C[C@H](N)C(=O)O` [L-alanine], the “rate of radiolabeled amino acid uptake, Water-injected Oocytes” value (shortened to “rate … Water-injected Oocytes”) (Water-injected Oocytes) is reported as 0.6 ± 0.1 pmol/min per oocyte, the “Imax (maximal current)” value [1] is reported as “(1.0)” and the “membrane response (inward Na+ currents) of ASCT1-injected oocytes” value (“membrane response (inward Na+ currents)” for short) [1] is reported as “hyperpolarization of the cell plasma membrane was produced”. The “rate of radiolabeled amino acid uptake, ASCT1 RNA-injected Oocytes” value (“rate … ASCT1 RNA-injected Oocytes” below) [2] was 18 ± 2 pmol/min per oocyte and the “electrogenic uptake in EAAT1-expressing oocytes” value (shortened to “electrogenic uptake”) [3] was “did not result in electrogenic uptake”.

In the case of `N[C@@H](CS)C(=O)O` [L-cysteine], the “rate … Water-injected Oocytes” value (Water-injected Oocytes) is reported as 1.0 ± 0.3 pmol/min per oocyte, the “Imax (maximal current)” value [1] is reported as 1.0 ± 0.04 and the “membrane response (inward Na+ currents)” value [1] is reported as “hyperpolarization of the cell plasma membrane was produced”. For the same molecule, the “rate … ASCT1 RNA-injected Oocytes” value [2] was 19.2 ± 5.9 pmol/min per oocyte and the “electrogenic uptake” value [3] was “capable of being electrogenically transported”.

In the case of `N[C@@H](CCC(=O)O)C(=O)O` [L-glutamate], the “extracellular concentration causing neuronal cell death” value (neuronal cell; Bouvier et al., 1992, Nicholls & Attwell) is given as greater than 300 µM, the “extracellular concentration causing neuronal cell death” value (neuronal cell; for 5 min., Choi et al., 1987) is given as greater than 5 µM and the “inward electric current in EAAT1-expressing oocytes (stereospecificity)” value [3] is given as “did not result in the generation of an inward electric current”. For the same molecule, the “inward current in EAAT1-expressing oocytes” value ([3]; 100 μM in ND-96) was “inward currents as high as several microamps” and the Km ([3]; inward current vs extracellular substrate concentration) was 54 µM.

In the case of `N[C@@H](CO)C(=O)O` [L-serine], the “rate … Water-injected Oocytes” value (Water-injected Oocytes) is reported as 0.4 ± 0.1 pmol/min per oocyte, the “Imax (maximal current)” value [1] is reported as 1.2 ± 0.08 and the “membrane response (inward Na+ currents)” value [1] is reported as “hyperpolarization of the cell plasma membrane was produced”. The “rate … ASCT1 RNA-injected Oocytes” value [2] was 20 ± 5.1 pmol/min per oocyte and the “electrogenic uptake” value [3] was “did not result in electrogenic uptake”.

B1: human EAAT1 excitatory amino acid transporter (Homo sapiens) (protein)
chain: MTKSNGEEPKMGGRMERFQQGVRKRTLLAKKKVQNITKEDVKSYLFRNAFVLLTVTAVIVGTILGFTLRPYRMSYREVKYFSFPGELLMRMLQMLVLPLIISSLVTGMAALDSKASGKMGMRAVVYYMTTTIIAVVIGIIIVIIIHPGKGTKENMHREGKIVRVTAADAFLDLIRNMFPPNLVEACFKQFKTNYEKRSFKVPIQANETLVGAVINNVSEAMETLTRITEELVPVPGSVNGVNALGLVVFSMCFGFVIGNMKEQGQALREFFDSLNEAIMRLVAVIMWYAPVGILFLIAGKIVEMEDMGVIGGQLAMYTVTVIVGLLIHAVIVLPLLYFLVTRKNPWVFIGGLLQALITALGTSSSSATLPITFKCLEENNGVDKRVTRFVLPVGATINMDGTALYEALAAIFIAQVNNFELNFGQIITISITATAASIGAAGIPQAGLVTMVIVLTSVGLPTDDITLIIAVDWFLDRLRTTTNVLGDSLGAGIVEHLSRHELKNRDVEMGNSVIEENEMKKPYQLIAQDNETEKPIDSETKM
Work on B1 yielded a Km [4] of 300 µM.
